Experimental data published in ChEMBL document CHEMBL5375949, “The evolution of small molecule enzyme activators” (RSC Med Chem, 2023).

How the values were obtained:
[1] = test system: BT-474; experiment: Cytotoxicity against human BT-474 cells assessed as inhibition of cell growth incubated for 24 hrs by MTS assay; format: functional, cell-based; settings: BT-474, 24 h
[2] = test system: MDA-MB-231; experiment: Cytotoxicity against human MDA-MB-231 cells assessed as inhibition of cell growth incubated for 24 hrs by MTS assay; format: functional, cell-based; settings: MDA-MB-231, 24 h
[3] = test system: Mus musculus; experiment: Anti-obesity activity against diet-induced obese mouse expressing CPT-1 H327E mutant assessed as reduction in body fat percentage at 400 mg/kg, IG administered for 12 week relative to control; format: functional; set-up: scale not given: the % may be the effect or the level left; settings: time 12 weeks
[4] = test system: Mus musculus; experiment: Anti-obesity activity against diet-induced obese mouse expressing CPT-1 H327E mutant assessed as reduction in body weight at 400 mg/kg, IG administered for 12 week; format: functional; settings: time 12 weeks
[5] = target: T1, Carnitine O-palmitoyltransferase 1, liver isoform (Homo sapiens) (UniProt P50416); experiment: Activation of CPT-1 in human HeLa cells assessed as fold increase at 100 uM incubated for 10 mins relative to control; format: cell-based; settings: filed as activator
T1 sequence (whole entry): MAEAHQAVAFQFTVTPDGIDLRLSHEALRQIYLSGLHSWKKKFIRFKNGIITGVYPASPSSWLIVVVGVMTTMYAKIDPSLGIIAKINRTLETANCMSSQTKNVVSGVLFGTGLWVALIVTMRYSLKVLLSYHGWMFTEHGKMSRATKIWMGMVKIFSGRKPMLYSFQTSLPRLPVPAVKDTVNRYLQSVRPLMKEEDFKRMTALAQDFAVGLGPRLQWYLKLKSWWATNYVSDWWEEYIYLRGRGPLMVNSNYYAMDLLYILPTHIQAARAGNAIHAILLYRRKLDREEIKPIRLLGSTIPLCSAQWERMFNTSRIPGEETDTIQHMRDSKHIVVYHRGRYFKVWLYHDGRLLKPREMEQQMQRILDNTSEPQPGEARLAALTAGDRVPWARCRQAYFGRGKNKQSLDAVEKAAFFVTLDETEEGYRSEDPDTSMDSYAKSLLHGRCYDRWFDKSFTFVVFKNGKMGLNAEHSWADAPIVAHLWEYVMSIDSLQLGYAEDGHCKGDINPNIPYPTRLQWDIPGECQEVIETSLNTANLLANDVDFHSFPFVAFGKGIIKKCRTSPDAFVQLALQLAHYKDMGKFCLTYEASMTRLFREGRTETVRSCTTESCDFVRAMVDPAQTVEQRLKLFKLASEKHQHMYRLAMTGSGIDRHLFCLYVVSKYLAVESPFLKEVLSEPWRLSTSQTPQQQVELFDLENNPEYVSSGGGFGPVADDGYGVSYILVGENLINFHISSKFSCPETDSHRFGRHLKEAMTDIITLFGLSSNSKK

[6] = target: T1, Carnitine O-palmitoyltransferase 1, liver isoform (Homo sapiens); experiment: Activation of CPT-1 in human HeLa cells assessed as reduction in free fatty acid at 100 uM incubated for 10 mins relative to control; format: cell-based; set-up: scale not given: the % may be the effect or the level left; settings: filed as activator
[7] = target: T2, Glucose-6-phosphate 1-dehydrogenase (Homo sapiens, UniProt P11413); experiment: Activation of G6PD (unknown origin) expressed in Escherichia coli C43(DE3) cells using G6P as substrate in presence of NADP+ by resazurin dye-based assay
[8] = target: T2, Glucose-6-phosphate 1-dehydrogenase; experiment: Activation of G6PD dimerization in lymphocytes isolated from G6PD-deficient patient carrying canton variant expressed in Escherichia coli C43(DE3) cells using G6P as substrate assessed as increase in lysate activity in presence of NADP+ by resazurin dye based fluorescence assay relative to control; format: subcellular; settings: Lymphocyte, filed as activator
[9] = target: N-glycosylase/DNA lyase (Homo sapiens, UniProt O15527); experiment: Activation of OGG1 (unknown origin) by fluorescence-based assay
[10] = test system: A549; experiment: Anti-oxidative activity in human A549 cells assessed as reduction in cell injury relative to control; format: functional; set-up: scale not given: the % may be the effect or the level left
[11] = target: Angiotensin-converting enzyme 2 (Homo sapiens, UniProt Q9BYF1); experiment: Activation of recombinant human ACE2 using McaAPK(Dnp)-OH as substrate preincubated for 15 mins followed by substrate addition spectra max Gemini M5 fluorescence plate reader analysis
[12] = target: Insulin-degrading enzyme (Homo sapiens) (UniProt P14735); experiment: Activation of IDE (unknown origin) using FRET1 as substrate at 6.25 uM by SpectraMax M5 multilabel plate reader analysis relative to control; settings: filed as activator
[13] = test system: NCI-H3255; experiment: Cytotoxicity against TKI-sensitive LUAD immortalized human NCI-H3255 cells assessed as inhibition of cell growth incubated for 48 hrs by Beckman Coulter cell counter analysis; format: functional, cell-based; settings: NCI-H3255, 48 h
[14] = test system: NCI-H1975; experiment: Cytotoxicity against d TKI-resistant LUAD human NCI-H1975 cells assessed as inhibition of cell growth incubated for 48 hrs by Beckman Coulter cell counter analysis; format: functional, cell-based; settings: NCI-H1975, 48 h
[15] = test system: NCI-H1975; experiment: Antitumor activity against human NCI-H1975 cells xenografted in mouse model assessed as fold decrease in tumor growth; format: functional
[16] = test system: HCC827; experiment: Cytotoxicity against TKI-sensitive LUAD immortalized human HCC827 cells assessed as inhibition of cell growth incubated for 48 hrs by Beckman Coulter cell counter analysis; format: functional, cell-based; settings: HCC827, 48 h
[17] = test system: NCI-H1650; experiment: Cytotoxicity against d TKI-resistant LUAD human NCI-H1650 cells assessed as inhibition of cell growth incubated for 48 hrs by Beckman Coulter cell counter analysis; format: functional, cell-based; settings: NCI-H1650, 48 h
[18] = Activation of procaspase-3 (unknown origin); set-up: species or system Homo sapiens
[19] = species on record: Homo sapiens; experiment: Activation of recombinant sGC (unknown origin) assessed as fold increase
[20] = Activation of sGC (unknown origin); set-up: species or system Homo sapiens
[21] = Activation of recombinant human procaspase-3 using Ac-DEVD-pNA as substrate preincubated for 12 hrs followed by substrate addition by absorbance based assay
[22] = target: Insulin-degrading enzyme (Homo sapiens) (UniProt P14735); experiment: Activation of IDE (unknown origin) using FRET1 as substrate at 200 uM by SpectraMax M5 multilabel plate reader analysis relative to control; settings: filed as activator
[23] = target: Insulin-degrading enzyme (Homo sapiens) (UniProt P14735); experiment: Activation of IDE (unknown origin) using SP1 as substrate in presence of ATP by SpectraMax M5 multilabel plate reader analysis relative to control; settings: filed as activator
[24] = test system: SUM-159-PT; experiment: cells; settings: Homo sapiens, 72 h
Description: Antiproliferative activity against human SUM159 cells assessed as inhibition of cell growth incubated for 72 hrs by Hoechst stain-based assay

[25] = test system: MDA-MB-231; experiment: cells; settings: Homo sapiens, MDA-MB-231, 72 h
Description: Antiproliferative activity against human MDA-MB-231 cells assessed as inhibition of cell growth incubated for 72 hrs by Hoechst stain-based assay

[26] = target: 3',5'-cyclic-AMP phosphodiesterase 4D (Homo sapiens, UniProt Q08499); experiment: Activation of PDE4D5 (unknown origin)
[27] = target: Indoleamine 2,3-dioxygenase 1 (Mus musculus, UniProt P28776); experiment: Positive allosteric modulation of recombinant mouse IDOL transfected in mouse P1.HTR cells assessed as increase in Kyn production incubated for 24 hrs; format: cell-based
[28] = target: Indoleamine 2,3-dioxygenase 1 (Homo sapiens, UniProt P14902); experiment: Positive allosteric modulation of recombinant human IDOL transfected in mouse P1.HTR cells assessed as increase in Kyn production incubated for 24 hrs; format: cell-based
[29] = Protection against rotenone-induced stress in human Induced pluripotent stem cell-derived neuron cells relative to control; format: functional

Chain of Insulin-degrading enzyme (Homo sapiens) (P14735 whole entry): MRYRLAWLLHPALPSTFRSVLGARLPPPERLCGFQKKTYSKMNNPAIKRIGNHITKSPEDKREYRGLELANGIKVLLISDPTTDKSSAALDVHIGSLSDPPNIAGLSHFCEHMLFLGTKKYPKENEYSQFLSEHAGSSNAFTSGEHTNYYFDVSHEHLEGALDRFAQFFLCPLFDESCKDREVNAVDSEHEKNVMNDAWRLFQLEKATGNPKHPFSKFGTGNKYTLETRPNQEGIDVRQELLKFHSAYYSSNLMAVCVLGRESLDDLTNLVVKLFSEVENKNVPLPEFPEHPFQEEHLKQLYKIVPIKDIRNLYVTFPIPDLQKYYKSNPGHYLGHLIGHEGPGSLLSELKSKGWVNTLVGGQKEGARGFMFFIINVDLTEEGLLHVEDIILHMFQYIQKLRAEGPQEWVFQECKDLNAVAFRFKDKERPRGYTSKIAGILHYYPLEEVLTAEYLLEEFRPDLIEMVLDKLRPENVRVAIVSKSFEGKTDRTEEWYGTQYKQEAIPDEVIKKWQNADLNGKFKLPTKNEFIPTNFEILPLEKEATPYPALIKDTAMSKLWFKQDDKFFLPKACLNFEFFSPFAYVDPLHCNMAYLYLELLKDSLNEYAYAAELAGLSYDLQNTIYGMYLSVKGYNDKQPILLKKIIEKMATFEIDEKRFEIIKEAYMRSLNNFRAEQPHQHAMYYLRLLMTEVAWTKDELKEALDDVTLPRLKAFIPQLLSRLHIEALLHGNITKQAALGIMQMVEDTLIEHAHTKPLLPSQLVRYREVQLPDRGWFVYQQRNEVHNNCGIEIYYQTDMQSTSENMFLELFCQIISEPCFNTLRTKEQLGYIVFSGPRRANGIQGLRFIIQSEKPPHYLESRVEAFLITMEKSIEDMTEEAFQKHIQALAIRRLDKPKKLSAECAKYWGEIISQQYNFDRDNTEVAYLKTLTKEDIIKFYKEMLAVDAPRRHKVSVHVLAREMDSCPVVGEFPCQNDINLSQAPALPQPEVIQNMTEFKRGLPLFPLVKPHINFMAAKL
Chain of N-glycosylase/DNA lyase (O15527 whole entry): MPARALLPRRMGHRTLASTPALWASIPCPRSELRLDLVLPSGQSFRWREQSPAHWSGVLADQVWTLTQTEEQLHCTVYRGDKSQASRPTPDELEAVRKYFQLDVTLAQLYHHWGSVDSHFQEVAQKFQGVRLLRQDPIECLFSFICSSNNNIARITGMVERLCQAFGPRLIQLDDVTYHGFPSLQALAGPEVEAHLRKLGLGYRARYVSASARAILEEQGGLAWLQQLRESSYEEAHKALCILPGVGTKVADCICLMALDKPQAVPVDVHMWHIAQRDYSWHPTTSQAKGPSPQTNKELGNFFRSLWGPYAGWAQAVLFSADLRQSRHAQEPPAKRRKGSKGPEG
Chain of Angiotensin-converting enzyme 2 (Q9BYF1 whole entry): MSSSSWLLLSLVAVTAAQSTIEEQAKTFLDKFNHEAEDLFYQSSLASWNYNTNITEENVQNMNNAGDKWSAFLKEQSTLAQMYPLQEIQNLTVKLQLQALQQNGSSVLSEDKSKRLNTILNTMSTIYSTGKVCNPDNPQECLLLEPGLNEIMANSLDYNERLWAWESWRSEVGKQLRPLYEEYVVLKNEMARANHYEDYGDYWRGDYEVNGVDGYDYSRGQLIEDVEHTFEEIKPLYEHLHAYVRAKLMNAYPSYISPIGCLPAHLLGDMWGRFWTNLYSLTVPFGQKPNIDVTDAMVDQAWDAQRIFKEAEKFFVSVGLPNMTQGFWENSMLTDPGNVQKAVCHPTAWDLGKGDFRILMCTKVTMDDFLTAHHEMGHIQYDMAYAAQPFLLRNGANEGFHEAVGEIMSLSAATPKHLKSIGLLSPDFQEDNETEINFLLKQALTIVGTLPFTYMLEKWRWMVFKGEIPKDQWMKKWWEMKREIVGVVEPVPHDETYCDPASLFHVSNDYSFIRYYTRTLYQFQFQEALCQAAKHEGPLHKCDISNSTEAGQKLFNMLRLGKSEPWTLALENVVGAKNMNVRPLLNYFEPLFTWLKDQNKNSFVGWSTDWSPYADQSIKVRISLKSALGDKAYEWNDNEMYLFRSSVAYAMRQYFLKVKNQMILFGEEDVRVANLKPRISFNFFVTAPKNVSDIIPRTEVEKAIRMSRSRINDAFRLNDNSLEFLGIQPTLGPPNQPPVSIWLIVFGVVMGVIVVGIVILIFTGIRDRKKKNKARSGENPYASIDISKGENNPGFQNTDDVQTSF
T2 sequence (P11413 whole entry): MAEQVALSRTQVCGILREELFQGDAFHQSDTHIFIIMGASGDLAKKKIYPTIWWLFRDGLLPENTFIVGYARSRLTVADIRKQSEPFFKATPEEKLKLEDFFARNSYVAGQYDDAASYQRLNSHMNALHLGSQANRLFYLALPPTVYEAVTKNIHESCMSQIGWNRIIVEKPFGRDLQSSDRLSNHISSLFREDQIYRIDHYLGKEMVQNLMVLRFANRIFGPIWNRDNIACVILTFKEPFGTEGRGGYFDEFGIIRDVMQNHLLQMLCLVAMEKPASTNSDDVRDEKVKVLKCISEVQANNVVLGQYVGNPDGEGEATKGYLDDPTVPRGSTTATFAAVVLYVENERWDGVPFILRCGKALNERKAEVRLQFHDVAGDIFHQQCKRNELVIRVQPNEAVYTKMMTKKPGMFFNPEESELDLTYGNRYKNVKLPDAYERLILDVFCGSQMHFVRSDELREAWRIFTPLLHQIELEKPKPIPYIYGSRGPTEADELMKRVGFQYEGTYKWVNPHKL
Chain of Indoleamine 2,3-dioxygenase 1 (Homo sapiens, UniProt P14902) (P14902 whole entry): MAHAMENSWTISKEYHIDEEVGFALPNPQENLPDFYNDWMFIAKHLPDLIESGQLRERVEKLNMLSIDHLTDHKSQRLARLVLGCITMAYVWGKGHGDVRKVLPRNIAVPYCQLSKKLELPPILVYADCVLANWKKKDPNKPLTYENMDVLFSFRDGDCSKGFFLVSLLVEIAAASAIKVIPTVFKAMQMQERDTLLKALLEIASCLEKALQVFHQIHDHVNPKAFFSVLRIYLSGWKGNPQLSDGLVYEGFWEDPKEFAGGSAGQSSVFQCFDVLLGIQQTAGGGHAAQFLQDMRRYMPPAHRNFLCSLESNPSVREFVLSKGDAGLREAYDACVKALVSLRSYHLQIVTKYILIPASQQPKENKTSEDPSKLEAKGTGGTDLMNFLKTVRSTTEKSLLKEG
Chain of 3',5'-cyclic-AMP phosphodiesterase 4D (Q08499 whole entry): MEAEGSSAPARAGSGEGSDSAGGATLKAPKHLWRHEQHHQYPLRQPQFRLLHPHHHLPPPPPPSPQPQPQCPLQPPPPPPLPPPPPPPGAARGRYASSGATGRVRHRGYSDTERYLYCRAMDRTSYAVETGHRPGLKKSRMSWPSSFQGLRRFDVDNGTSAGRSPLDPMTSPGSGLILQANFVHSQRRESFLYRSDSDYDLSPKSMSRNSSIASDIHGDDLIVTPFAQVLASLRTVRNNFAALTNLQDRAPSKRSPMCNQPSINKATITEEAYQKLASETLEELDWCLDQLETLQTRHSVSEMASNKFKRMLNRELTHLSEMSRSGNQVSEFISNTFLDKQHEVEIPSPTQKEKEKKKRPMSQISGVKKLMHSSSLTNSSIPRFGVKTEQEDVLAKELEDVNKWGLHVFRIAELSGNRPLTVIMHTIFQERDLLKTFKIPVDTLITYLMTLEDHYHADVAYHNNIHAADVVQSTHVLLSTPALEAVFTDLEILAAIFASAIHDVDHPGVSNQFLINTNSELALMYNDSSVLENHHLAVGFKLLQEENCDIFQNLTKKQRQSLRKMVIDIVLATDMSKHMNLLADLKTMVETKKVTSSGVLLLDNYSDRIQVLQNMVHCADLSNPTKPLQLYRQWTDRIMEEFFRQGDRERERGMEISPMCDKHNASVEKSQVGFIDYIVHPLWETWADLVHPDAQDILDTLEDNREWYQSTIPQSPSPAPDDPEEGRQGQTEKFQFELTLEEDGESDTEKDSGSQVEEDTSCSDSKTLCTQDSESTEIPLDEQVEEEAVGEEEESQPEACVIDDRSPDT
Chain of Indoleamine 2,3-dioxygenase 1 (Mus musculus, UniProt P28776) (P28776 whole entry): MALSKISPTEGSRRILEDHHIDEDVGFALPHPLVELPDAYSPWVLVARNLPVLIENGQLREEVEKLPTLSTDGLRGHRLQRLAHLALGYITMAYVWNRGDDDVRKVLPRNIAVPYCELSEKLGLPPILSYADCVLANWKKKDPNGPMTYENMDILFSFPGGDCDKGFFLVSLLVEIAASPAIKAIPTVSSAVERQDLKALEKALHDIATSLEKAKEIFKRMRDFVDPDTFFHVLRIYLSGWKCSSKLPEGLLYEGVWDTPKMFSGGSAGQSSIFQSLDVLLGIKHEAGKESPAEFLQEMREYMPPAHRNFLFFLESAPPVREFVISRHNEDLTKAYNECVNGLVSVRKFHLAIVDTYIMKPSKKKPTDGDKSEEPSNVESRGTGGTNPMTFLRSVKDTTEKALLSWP

CCCCCCCCc1ccc(CCC(N)(CO)CO)cc1 [FINGOLIMOD]
IC50 [1]: 8.5 µM
IC50 [2]: 2.9 µM

O=C(O)[C@H]1O[C@@H](Oc2cc3oc(-c4ccccc4)cc(=O)c3c(O)c2O)[C@H](O)[C@@H](O)[C@@H]1O [BAICALIN]
Activity [3]: -0.085%
Activity [4]: -12.5 g
fold change (FC) [5]: 7
Activity [6]: 50%

c1ccc2c(CCNCCSSCCNCCc3c[nH]c4ccccc34)c[nH]c2c1
EC50 [7]: 0.8 µM
Activity [8]: 78%

CNc1nnc(C)c2c1cc(-c1ccc(F)cc1)n2C
EC50 [9]: 5.1 µM
Activity [10]: 200%

N=C(N)c1ccc(/N=N/Nc2ccc(C(=N)N)cc2)cc1 [DIMINAZENE]
EC50 [11]: 8.04 µM

Cc1cc(N[C@@H](C)C(=O)Nc2ccccc2)nc(Nc2ccccc2)n1
EC50 [9]: 4.1 µM

OC(Cn1ccnc1)(c1ccc(Cl)cc1Cl)C1CCCCC1 (stereo unspecified)
EC50 [9]: 5 µM
Activity [10]: 650%

Cc1cnc(N2CCN3CCCC3C2)nc1Oc1ccc(-n2ccnc2)cc1 (stereo unspecified)
EC50 [9]: 4.6 µM

O=C(Nc1cccc(Cl)c1)N1CCC(c2cc(-c3ccco3)[nH]n2)CC1
Activity [12]: 60%

O=C1OC2(c3ccc(O)cc3Oc3cc(O)ccc32)c2ccccc21 [FLUORESCEIN]
EC50 [11]: 19.5 µM

O=S(=O)(N[C@@H]1CCCC(N2c3ccccc3Oc3ccccc32)[C@H]1O)c1ccc(OC(F)(F)F)cc1 (stereo partly specified)
IC50 [13]: 12.4 µM
IC50 [14]: 10.6 µM
fold change (FC) [15]: 2
IC50 [16]: 14.3 µM
IC50 [17]: 10.6 µM

O=C(Nc1cccc(-c2cn3ccccc3n2)c1)c1cc2cccc(O)c2oc1=O
EC50 [18]: 1.3 µM

COC(=O)N(C)c1c(N)nc(-c2nn(Cc3ccccc3F)c3ncccc23)nc1N
fold change (FC) [19]: < 73

O=C(Nc1ccc(S(=O)(=O)N2CCOCC2)cc1)c1cc(Cl)ccc1NS(=O)(=O)c1ccc(Cl)s1
EC50 [20]: 0.5 µM

O=C(CN1CCN(Cc2nc(-c3ccc(COc4ccc(F)cc4)cc3)no2)CC1)N/N=C/c1ccc(OCc2csc(Cc3ccc4c(c3)OCO4)n2)cc1O
EC50 [21]: 0.95 µM

O=C1CC(c2ccc(Cl)cc2)CC(=O)C1/C=N/OCc1nnsc1Cl (stereo unspecified)
Activity [22]: 500%
Activity [23]: 1000%

Fc1ccccc1Cc1nc(-c2nc(C(F)(F)F)n[nH]2)cn2ccnc12 [ZAGOCIGUAT]
EC50 [20]: 0.066 µM

c1ccc2c(NC3CCCCC3)nc(C3CC3)nc2c1
EC50 [9]: 0.78 µM

N#Cc1cccc(CN2CCc3ncn(Cc4ccc(Cl)cc4)c(=O)c3C2)c1
IC50 [24]: 0.012 µM
IC50 [25]: 0.003 µM

CCc1nc(-c2ccc(Cl)c(F)c2)nn1CC(=O)NCc1cc(Cl)cc(Cl)c1
EC50 [26]: 1.2 µM

CC(=O)NCCc1c[nH]c2ccc(O)cc12 [ACETYLSEROTONIN]
EC50 [27]: 19.6 µM
EC50 [28]: 20.9 µM

O=C(c1cc(O)c(O)c(O)c1)c1ccc(O)c(O)c1O [EXIFONE]
Activity [29]: 80%
